According to publication PMC5987196 (ACS infectious diseases, 2017):
Where two headings read alike, the source gives them in different places.

What was measured:
[1] = tested on: E. coli carrying blaADC37 encoded in pBC SK (−); assay: MIC broth microdilution with ceftazidime plus BATSI; format: cell-based, Escherichia coli DH10B; conditions: for MIC broth dilution: CAZ MIC with 10 μg/mL compound, CAZ varied from 0 to 128 μg/mL
[2] = tested on: E. coli carrying blaADC37 encoded in pBC SK (−); assay: Disk susceptibility assay; format: cell-based, Escherichia coli DH10B; conditions: 10 μg of BAI and 10 μg of ceftazidime per disk, zone size
[3] = tested on: AB0057 A. baumannii spp. clinical strain; assay: Disk susceptibility assay; format: cell-based; conditions: zone size
ADC-7 [4] = target: T1, ADC-7 (Acinetobacter baumannii, UniProt Q6DRA1); conditions: previously reported value for the lead compound; cited from earlier work
ADC-7 [5] = target: T1, ADC-7; assay: Competition kinetics with nitrocefin against ADC-7 β-lactamase; format: biochemical
E. coli AmpC = conditions: class C enzyme lacking Arg340; cited from earlier work
Pseudomonas PDC-3 = conditions: class C enzyme lacking Arg340; cited from earlier work
[6] = 10 μg of BAI and 10 μg of sulbactam per disk

Molecule | MIC broth dilution [1] | disk assay [2] | disk assay [3, 6] | also measured
O=C(Cc1cccs1)N[C@@H](Cn1cc(C(=O)O)nn1)B(O)O [3a, (1R)-2-[4-carboxy-[1,2,3]triazol-1-yl]-1-(2-thienylace-tylamino)ethaneboronic acid] | 1 µg/mL | 26 mm | 16 mm | Ki (ADC-7 [4]): 44 nM
O=C(O)Cc1cn(C[C@H](NC(=O)Cc2cccs2)B(O)O)nn1 [3b, (1R)-2-(4-carboxymethyl-[1,2,3]triazol-1-yl)-(2-thienylace-tylamino)ethaneboronic acid] | 2 µg/mL | 18 mm | 10 mm | less activity relative to 3a (ADC-7 [5]; Ki compared with 3a): 3 fold
O=C(Cc1cccs1)N[C@@H](Cn1cc(-c2cccc(C(=O)O)c2)nn1)B(O)O [3c, (1R)-2-[4-(3-carboxyphenyl)-[1,2,3]triazol-1-yl]-1-(2-thienylacetylamino)ethaneboronic acid] |  | 24 mm | 15 mm | Ki (ADC-7 [5]): 46 ± 3 nM
O=C(Cc1cccs1)N[C@@H](Cn1cc(-c2nn[nH]n2)nn1)B(O)O [3h, (1R)-2-[4-(2H-tetrazol-5-yl)-[1,2,3]triazol-1-yl]-1-(2-thienylacetylamino)ethaneboronic acid] |  | 23 mm | 10 mm | 
O=C(Cc1cccs1)N[C@@H](Cn1cc(-c2cccc(-c3nn[nH]n3)c2)nn1)B(O)O [3j, (1R)-2-[4-(3-(2H-tetrazol-5-yl)phenyl)-[1,2,3]triazol-1-yl]-1-(2-thienylacetylamino)ethaneboronate] | 8 µg/mL | 15 mm | 6 mm | 
CC(C)(O/N=C(\C(=O)N[C@@H]1C(=O)N2C(C(=O)[O-])=C(C[n+]3ccccc3)CS[C@H]12)c1csc(N)n1)C(=O)O [CAZ, ceftazidime, reference compound] |  |  |  | MIC ([1]; Escherichia coli, read-out: MIC broth dilution): 32 µg/mL
O=C(Cc1cccs1)N[C@@H](Cc1cccc(C(=O)O)c1)B(O)O [EC04, reference compound] | 2 µg/mL | 21 mm | 11 mm | Ki (E. coli AmpC): 1 nM; Ki (Pseudomonas PDC-3): 220 nM
O=C(Cc1cccs1)N[C@H](B(O)O)c1cccc(C(=O)O)c1 [SM23, reference compound] | 1 µg/mL | 25 mm | 12 mm | Ki (E. coli AmpC): 1 nM; Ki (Pseudomonas PDC-3): 4 nM
CC1(C)[C@H](C(=O)O)N2C(=O)C[C@H]2S1(=O)=O [SUL, sulbactam, reference compound] |  |  |  | disk assay ([3]; SUL alone, 10 μg): SUL 6 mm; disk assay ([3]; SUL alone, 10 μg, listed as sulbactam): 6 mm
(1R)-2-(4-carboxamido-[1,2,3]triazol-1-yl)-1-(2-thienylacetylamino)ethaneboronate [3d] | 4 µg/mL | 18 mm | 10 mm | 
(1R)-2-(4-idroxycarbamoyl-[1,2,3]triazol-1-yl)-1-(2-thienylacetylamino)ethaneboronic acid [3e] | 2 µg/mL | 16 mm | 8 mm | 
